Data: patent publication US12161630B2, “Methods to control infection using new generation small molecule growth inhibitors” (priority 2017, dated 2024)

Tests used:
sheep red blood cells = test: Hemolytic activity in sheep RBCs; type: cell-based; conditions: 200 μM, one-hour treatment
Procedure: Briefly, 200 μl of 10% sheep red blood cells (RBCs; LAMPIRE Biological Laboratories, Pipersville, PA) suspension was incubated with 1 μl of SMs (200 μM) for one hour at 37° C. in a sterile, non-treated, flat bottom plate 96-well. After incubation, the plate was centrifuged at 4000 rpm for 5 min at 4° C., then placed on ice for five min. 100 μL of the supernatant was transferred into a new sterile, treated, flat bottom 96-well plate, and the OD was measured at 540 nm. For this experiment, 2% DMSO (negative control) and 0.1% Triton-100X (positive control) were used. % Hemolysis=(OD540 SM−OD540 DMSO)/(OD540 1× triton−OD540 PBS)×100. Similar experiment was performed with chicken RBCs (OARDC, Ohio).

[1] = system: Galleria mellonella larvae; test: Toxicity on Galleria mellonella larva; type: in vivo; conditions: over 72 HPI, single treatment with 12.5 μg per larva
Procedure: Toxicity of the selected four SMs on Galleria mellonella larva: Galleria mellonella larvae (fifth instar stage) were incubated for 12 hrs at 37° C. in the dark. After incubation, only larvae with a white phenotype and a body weight ranging between 225 mg to 275 mg were selected for the injection. Fifteen larvae per group were inoculated in one of the last pro-leg with 12.5 μg of SMs (8.5 μl) using a PB600-1 repeating dispenser (Hamilton, Reno, NV) attached to 300 μl insulin syringe, 31-gauge, 8 mm needle length (ReliOn®, Bentonville, AR). SMs were diluted into a buffer mix (30% DMSO plus 10 mM MgSO4). Larvae were placed inside a plastic petri dish and incubated for 3 days in the dark at 37° C. Every 12 hrs of interval, the larva survival was monitored. Non-treated larvae, larvae treated with the buffer mix, and larvae treated with 12.5 μg of chloramphenicol were used as control. At least two independent experiments were conducted.

Kan^R S. typhimurium = test: Salmonella clearance in one-week-old infected broiler chickens; type: in vivo; conditions: 100 μg orally twice daily for 5 days; for reduction in Salmonella population inside the ceca: compared to DMSO group; for Chicken tissues positive for Salmonella: Ceca / Chicken tissues positive for Salmonella: Livers / Chicken tissues positive for Salmonella: Spleens: n = 10
Procedure: FIG. 7. Experimental design of the Salmonella clearance study in one-week-old infected broiler chickens. Salmonella-free chickens were orally infected with 10^4 S. typhimurium units per chickens (0 DPI). After confirmation of the intestinal colonization by Salmonella (1 DPI), ten chicks per treatment were treated twice a day for five days with 100 μg of SMs (3 DPI to 7 DPI). Ceca, liver, and spleen tissues were collected at 8 DPI. DPI: days post-inoculation.
Effect of selected SMs on the survival of S. typhimurium in one-week-old SFP chickens: One-week-old Salmonella-free chickens were orally inoculated with approximately 10^4 Kan^R S. typhimurium bacteria. A rectal swab was collected to confirm the intestinal colonization by Salmonella at one day post-inoculation (DPI). At 3 DPI, chickens were treated orally twice a day for five days with a specific treatment of approximately 920 μg/kg SMs per dose. Details of the treatment groups are described in Table 7. Feeders were taken off one hour before the treatment and put back one hour after the treatment. Following the five days of treatment, chickens were euthanized and tissues were aseptically collected (ceca, liver, and spleen). One of the cecum was immediately stored at −80° C. after sampling for microbiota studies. Ceca, spleens, and livers tissues were suspended in 2, 3, and 5 mL of 1×PBS respectively and grinded. 1 mL of the undiluted homogenized tissue mix was enriched in 9 mL of tetrathionate broth (TTB) medium for 18 hrs at 37° C. The rest of the homogenized tissues were serial ten-fold diluted, plated on XLT4 agar plate supplemented with 50 μg/ml kanamycin, and incubated for 36 hrs at 37° C. Bacterial counts were compared with the DMSO control group.

[2] = system: Avian Pathogenic E. coli (O1, O2, O8, O15, O18, O35, O78, O109, and O115); test: Activity on avian pathogens at 200 μM, Avian Pathogenic E. coli; type: cell-based, Escherichia coli
Procedure: FIGS. 1(A-E). Selection of potent Salmonella growth inhibitors. FIG. 1A: High-throughput screening of 4182 SMs against S. typhimurium WT at 200 μM. Negative value: growth inhibition; Positive value: growth stimulation compared to S. typhimurium growth not treated. The black line represents growth inhibition caused by 2% DMSO. FIG. 1B: Activity of 19 S. typhimurium growth inhibitors against additional Salmonella serotypes. Light grey cells: total growth inhibition; dark grey cells: bacterial growth observed; black cells: not determined. FIG. 1C: Dose-response assays of the selected 19 SMs against S. typhimurium WT. […] The black line represents a cut off of nine serotypes killed per SM. FIG. 1E: Activity spectra of the selected four SMs at 200 μM each on several avian-pathogens (Campylobacter jejuni, Escherichia coli APEC, and Mycoplasma gallisepticum) and beneficial gut bacteria (remaining species). E. coli APEC refers to Avian Pathogenic E. coli and includes E. coli O1, O2, O8, O15, O18, O35, O78, O109, and O115. Light grey cells: cidal effect; dark grey cells: bacterial growth observed. Left side: phylogenetic tree based on NCBI taxonomic ID built with PhyloT software.
The selected four SMs were tested on twelve beneficial-commensal gut bacteria at 200 μM (FIG. 1E). […] These four SMs were also growth inhibitors of other avian pathogens at 200 μM (unpublished data, FIG. 1E). […]

[3] = system: twelve beneficial-commensal gut bacteria; test: Activity spectrum on twelve beneficial-commensal gut bacteria at 200 μM; type: cell-based
Procedure: SM activity spectrum: The 128 selected SMs were tested for antimicrobial effects on nine different serotypes frequently implicated in foodborne gastroenteritis outbreaks. Later in the study, the four best SMs were tested against twelve beneficial/commensal gut bacteria. Both screens were performed at 200 μM as described in the primary screening. Growth conditions for each strain are described in Table 1.

[4] = system: internalized Salmonella in Caco-2, HD11 and THP-1 cells; test: S. typhimurium clearance in infected cell lines, summary over the three cell lines; type: cell-based; conditions: over the three cell lines (Caco-2, HD11, THP-1)
Procedure: Effect of the four SMs on S. typhimurium intracellular survival in cells lines: The ability of four SMs to clear S. typhimurium WT […] was evaluated using three cell lines (Caco-2 cells, HD11, and THP-1 cells). The Salmonella intracellular survival as assessed as described (13). A multiplicity of infection “MOI” of 10 was used. Infected cells were treated with 1 μl of SMs (final concentration ranged between 100 μM and 6.25 μM) at 37° C. for 24 hrs in humidified, 5% CO2 incubator. Following incubation, cells were washed once with 150 μl of 1×PBS, lysed with 0.1% Triton-100X, serial ten-fold diluted in 1×PBS, and plated on agar plate. Plates were incubated at 37° C. for 24 hrs to determine the intracellular survival. Cells not infected and not treated, and cells infected and treated with 2% DMSO were used as controls.

SMILES	hemolytic activity in sheep RBCs (sheep red blood cells)	lethal effect in G. mellonella larvae [1]	reduction in Salmonella population inside the ceca (Kan^R S. typhimurium)	Chicken tissues positive for Salmonella: Ceca (Kan^R S. typhimurium)	Chicken tissues positive for Salmonella: Livers (Kan^R S. typhimurium)	Chicken tissues positive for Salmonella: Spleens (Kan^R S. typhimurium)	effect against Avian Pathogenic E. coli [2]	activity on twelve beneficial-commensal gut bacteria [3]	concentration clearing internalized Salmonella [4]
CC1CCC(C(C)C)C(OC(=O)Cn2c[n+](CC(=O)OC3CC(C)CCC3C(C)C)c3ccccc32)C1.[Cl-] (centres unmarked) [SM1, 1,3-bis{2-[(2-isopropyl-5-methylcyclohexyl)oxy]-2-oxoethyl}-1H-3,1-benzimidazol-3-ium chloride]	> 50%	chronic death of the larvae over time	did not show any reduction	90%	40%	50%	–	–	–
CCCCCCCCCCCCCCCC[n+]1ccn(CC#N)c1.[Cl-] [SM3, 1-(cyanomethyl)-3-hexadecyl-1H-imidazol-3-ium chloride]	–	killed only a few larvae	did not show any reduction	80%	60%	50%	lethal	killing all twelve strains tested	50 µM
CCCCCCCCCCCCCCCCn1c[n+](C)c2ccccc21.[Br-] [SM4, 1-hexadecyl-3-methyl-1H-3,1-benzimidazol-3-ium bromide]	–	no lethal effect	–	40%	30%	20%	lethal	killing all twelve strains tested	25 µM
CCOc1cc(/C=N/N=C(N)N)ccc1OCc1ccc(Cl)cc1 [SM5, N″-{4-[(4-chlorobenzyl)oxy]-3-ethoxybenzylidene}carbonohydrazonic diamide]	lower than 1%	killed only a few larvae	–	70%	40%	30%	–	–	–
